Measurements reported in EP3529257B1, “[…] METHODS OF USE THEREOF” (Sage Therapeutics, Inc., priority 2016, dated 2018).

Key:
[1] = target: T1, GluN2B glutamate receptors (Homo sapiens, UniProt Q05586+Q13224); assay: Whole-cell patch clamp of mammalian cells (Ionworks Barracuda), positive allosteric modulation (PAM) of NMDA receptor, 2B; format: cell-based; conditions: for Emax / Avg Emax 2B (%): % activation of current elicited with EC20 L-glutamate and 30 µM glycine; for EC50: co-application with EC20 L-glutamate and 30 µM glycine, 8-point concentration-response
T1 construct: expressed in transfected cells; host or cells: mammalian cells (line not described for GluN2B)
T1 sequence (Q13224 27-1484, other chains not shown): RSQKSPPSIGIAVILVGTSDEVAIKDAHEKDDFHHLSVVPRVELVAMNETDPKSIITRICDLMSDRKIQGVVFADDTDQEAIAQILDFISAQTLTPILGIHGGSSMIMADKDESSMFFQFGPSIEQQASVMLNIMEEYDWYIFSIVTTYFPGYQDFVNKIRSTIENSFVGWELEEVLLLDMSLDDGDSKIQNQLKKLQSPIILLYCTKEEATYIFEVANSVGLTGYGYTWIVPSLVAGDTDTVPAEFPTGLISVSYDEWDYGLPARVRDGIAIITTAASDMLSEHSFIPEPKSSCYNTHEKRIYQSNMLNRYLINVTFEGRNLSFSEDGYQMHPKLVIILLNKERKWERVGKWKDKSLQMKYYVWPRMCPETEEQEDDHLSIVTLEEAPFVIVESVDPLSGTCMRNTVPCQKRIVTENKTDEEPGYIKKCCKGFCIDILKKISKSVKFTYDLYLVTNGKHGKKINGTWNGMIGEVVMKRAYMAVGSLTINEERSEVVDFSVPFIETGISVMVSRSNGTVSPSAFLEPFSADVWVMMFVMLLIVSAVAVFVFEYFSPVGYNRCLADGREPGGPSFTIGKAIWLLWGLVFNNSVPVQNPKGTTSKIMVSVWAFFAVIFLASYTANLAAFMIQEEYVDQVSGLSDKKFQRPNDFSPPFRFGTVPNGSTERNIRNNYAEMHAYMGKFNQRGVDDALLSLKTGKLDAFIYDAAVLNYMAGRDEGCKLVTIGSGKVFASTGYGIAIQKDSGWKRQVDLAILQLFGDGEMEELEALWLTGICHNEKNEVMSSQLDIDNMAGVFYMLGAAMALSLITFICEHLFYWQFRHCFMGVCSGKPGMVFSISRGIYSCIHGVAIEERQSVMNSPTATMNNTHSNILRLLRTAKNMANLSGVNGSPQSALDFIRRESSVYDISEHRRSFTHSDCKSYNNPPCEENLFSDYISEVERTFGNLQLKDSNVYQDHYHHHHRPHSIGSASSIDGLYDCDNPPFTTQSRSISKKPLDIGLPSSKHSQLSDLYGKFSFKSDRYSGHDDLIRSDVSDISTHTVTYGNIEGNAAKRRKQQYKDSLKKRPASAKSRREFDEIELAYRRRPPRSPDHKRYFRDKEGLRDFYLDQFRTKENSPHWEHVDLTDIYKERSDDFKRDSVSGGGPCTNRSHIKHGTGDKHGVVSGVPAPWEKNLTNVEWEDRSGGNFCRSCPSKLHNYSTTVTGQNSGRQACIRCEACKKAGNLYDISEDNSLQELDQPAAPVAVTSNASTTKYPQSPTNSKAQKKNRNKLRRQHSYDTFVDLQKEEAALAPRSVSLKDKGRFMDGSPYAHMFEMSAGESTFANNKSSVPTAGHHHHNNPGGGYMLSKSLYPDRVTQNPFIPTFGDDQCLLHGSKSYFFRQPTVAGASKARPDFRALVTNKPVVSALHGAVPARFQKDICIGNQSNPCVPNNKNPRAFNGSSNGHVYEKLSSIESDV
Method: (§1) The measurements were perfomed using Ion Works Barracuda platform following this procedure: • Electrophysiological Procedures: • a) Intracellular solution (mM): 50 mM CsCl, 90 mM CsF, 2 mM MgCl2, 5 mM EGTA, 10 mM HEPES. Adjust to pH 7.2 with CsOH. • b) Extracellular solution, HB-PS (composition in mM): NaCl, 137; KCl, 1.0; CaCl2, 5; HEPES, 10; Glucose, 10; pH adjusted to 7.4 with NaOH (refrigerated until use). • c) Holding potential: -70 mV, potential during agonist/PAM application: -40 mV. • Recording procedure: • a) Extracellular buffer will be loaded into the PPC plate wells (11 µL per well). Cell suspension will be pipetted into the wells (9 µL per well) of the PPC planar electrode. • b) Whole-cell recording configuration will be established via patch perforation with membrane currents recorded by on-board patch clamp amplifiers. • c) Two recordings (scans) will be performed. First, during pre-application of test article alone (duration of pre-application - 5 min) and second, during test articles and agonist (EC20 L-glutamate and 30 µM glycine) co-application to detect positive modulatory effects of the test article.
(§2) Test Article Administration: The first pre-application will consist of the addition of 20 µL of 2X concentrated test article solution and, second, of 20 µL of 1X concentrated test article and agonist at 10 µL/s (2 second total application time).
(§3) PAM concentration-response data will be fitted to an equation of the form: % Activation = % L−glutamate EC20 + {(%MAX−%L−glutamateEC20)/[1+(([Test]/; EC50))^N]}, [formula] where [Test] will be the concentration of PAM (test article), EC50 will be the concentration of PAM producing half-maximal activation, N will be the Hill coefficient, % L-glutamate EC20 will be the percentage of the current Elicited with L-glutamate EC20, % MAX is the percentage of the current activated with the highest dose of PAM co-admitted with L-glutamate EC20 and % Activation will be the percentage of the current elicited with L-glutamate EC10-30 at each PAM concentration.
(§4) The maximal amplitude of the evoked currents are measured and defined as Peak Current Amplitude (PCA).

[2] = target: T2, GlunN1/GluN2A glutamate receptors (Homo sapiens, UniProt Q05586+Q12879); assay: Whole-cell patch clamp of mammalian cells (Ionworks Barracuda), positive allosteric modulation (PAM) of NMDA receptor, 2A; format: cell-based; conditions: for Emax: HEK293, HEK293 cells; for Emax / Avg Emax 2A (%): % activation of current elicited with EC20 L-glutamate and 30 µM glycine; for Avg Emax 2A (%) / EC50: HEK293 cells; for EC50: co-application with EC20 L-glutamate and 30 µM glycine, 8-point concentration-response
T2 construct: expressed in transfected cells
T2 sequence (Q12879 23-1464, other chains not shown): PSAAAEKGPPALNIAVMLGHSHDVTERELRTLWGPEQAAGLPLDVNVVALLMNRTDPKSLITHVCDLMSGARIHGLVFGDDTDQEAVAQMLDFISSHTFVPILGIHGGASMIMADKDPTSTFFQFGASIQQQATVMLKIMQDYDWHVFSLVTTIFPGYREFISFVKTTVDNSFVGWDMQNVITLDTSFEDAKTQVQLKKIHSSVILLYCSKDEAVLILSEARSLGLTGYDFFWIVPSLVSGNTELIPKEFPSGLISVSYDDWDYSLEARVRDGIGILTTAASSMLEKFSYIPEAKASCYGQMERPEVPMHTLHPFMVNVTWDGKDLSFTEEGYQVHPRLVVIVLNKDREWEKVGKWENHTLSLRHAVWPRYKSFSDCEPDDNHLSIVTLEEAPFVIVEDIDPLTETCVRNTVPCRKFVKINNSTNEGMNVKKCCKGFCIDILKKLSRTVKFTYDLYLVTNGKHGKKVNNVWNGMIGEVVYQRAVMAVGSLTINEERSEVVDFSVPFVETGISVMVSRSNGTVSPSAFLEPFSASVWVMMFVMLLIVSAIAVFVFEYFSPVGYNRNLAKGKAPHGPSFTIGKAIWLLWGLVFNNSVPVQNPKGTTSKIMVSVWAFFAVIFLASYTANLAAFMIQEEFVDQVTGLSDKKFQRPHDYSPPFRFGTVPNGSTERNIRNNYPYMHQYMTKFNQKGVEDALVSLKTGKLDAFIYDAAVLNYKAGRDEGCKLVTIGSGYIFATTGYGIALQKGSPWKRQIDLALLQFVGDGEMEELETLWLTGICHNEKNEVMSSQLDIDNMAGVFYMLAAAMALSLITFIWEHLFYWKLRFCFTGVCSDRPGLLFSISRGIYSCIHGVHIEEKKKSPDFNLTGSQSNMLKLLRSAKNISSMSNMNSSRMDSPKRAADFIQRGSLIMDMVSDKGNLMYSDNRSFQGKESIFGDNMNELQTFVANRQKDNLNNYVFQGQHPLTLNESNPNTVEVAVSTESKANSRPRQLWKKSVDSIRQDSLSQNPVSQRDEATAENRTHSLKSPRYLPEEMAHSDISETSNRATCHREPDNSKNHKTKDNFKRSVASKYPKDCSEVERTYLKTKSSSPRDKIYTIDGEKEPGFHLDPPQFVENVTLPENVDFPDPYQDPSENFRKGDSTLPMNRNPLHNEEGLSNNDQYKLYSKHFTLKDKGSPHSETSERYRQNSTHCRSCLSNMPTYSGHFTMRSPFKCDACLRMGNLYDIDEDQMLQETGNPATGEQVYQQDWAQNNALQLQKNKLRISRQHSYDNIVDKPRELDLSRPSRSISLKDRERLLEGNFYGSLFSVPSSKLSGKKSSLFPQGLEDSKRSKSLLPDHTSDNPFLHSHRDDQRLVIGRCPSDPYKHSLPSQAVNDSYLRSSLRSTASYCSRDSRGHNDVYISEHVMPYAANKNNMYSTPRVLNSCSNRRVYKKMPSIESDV
Method: as §1, §2, §3, §4

## CC[C@]1(O)CC[C@H]2C(=CC[C@@H]3[C@@H]2CC[C@]2(C)[C@@H]([C@H](C)CC[C@H](O)C(C)C)CC[C@@H]32)C1 [Compound 8462]
[1]
  Emax: 281%
[2]
  Emax: 273%

## CC[C@]1(O)CC[C@H]2C(=CC[C@@H]3[C@@H]2CC[C@]2(C)[C@@H]([C@H](C)CC[C@@H](O)C(C)C)CC[C@@H]32)C1 [Compound 8463]
[1]
  Emax: 324%
[2]
  Emax: 291%

## CC[C@]1(O)CC[C@H]2C(=CC[C@@H]3[C@@H]2CC[C@]2(C)[C@@H]([C@H](C)CC[C@]4(O)CCOC4)CC[C@@H]32)C1 [Compound 8603]
[1]
  Emax: 271%
[2]
  Emax: 294%

## CC[C@]1(O)CC[C@H]2C(=CC[C@@H]3[C@@H]2CC[C@]2(C)[C@@H]([C@H](C)CCC4(O)CCOC4)CC[C@@H]32)C1 (stereo partly shown) [Compound 8689]
[1]
  Emax: 439%
[2]
  Emax: 320%

## C[C@H](CC[C@](C)(O)C(F)(F)F)[C@H]1CC[C@H]2[C@@H]3CC=C4C[C@@](C)(O)CC[C@@H]4[C@H]3CC[C@]12C [Compound 9062]
[1]
  Avg Emax 2B (%): 52.2%
  EC50: 179 nM
[2]
  Avg Emax 2A (%): 66.5%
  EC50: 34.5 nM

## CC[C@]1(O)CC[C@H]2C(=CC[C@@H]3[C@@H]2CC[C@]2(C)[C@@H]([C@H](C)CCC[C@@H](O)C(C)C)CC[C@@H]32)C1 [Compound 10114]
[1]
  Avg Emax 2B (%): 179.1%
  EC50: 506 nM
[2]
  Avg Emax 2A (%): 146.3%
  EC50: 321 nM

## CC[C@]1(O)CC[C@H]2C(=CC[C@@H]3[C@@H]2CC[C@]2(C)[C@@H]([C@H](C)CCCC4(O)CCC(C)(C)CC4)CC[C@@H]32)C1 [Compound 10317]
[1]
  Avg Emax 2B (%): 59.9%
  EC50: > 10000 nM
[2]
  Avg Emax 2A (%): 56.7%
  EC50: > 10000 nM

## CCC(O)CCC[C@@H](C)[C@H]1CC[C@H]2[C@@H]3CC=C4C[C@](O)(CC)CC[C@@H]4[C@H]3CC[C@]12C (stereo partly shown) [Compound 10673]
[1]
  Avg Emax 2B (%): 213.5%
  EC50: 180 nM
[2]
  Avg Emax 2A (%): 215.5%
  EC50: 254 nM

## CC[C@H](O)CCC[C@@H](C)[C@H]1CC[C@H]2[C@@H]3CC=C4C[C@](O)(CC)CC[C@@H]4[C@H]3CC[C@]12C [Compound 10949]
[1]
  Avg Emax 2B (%): 147.4%
  EC50: 138 nM
[2]
  Avg Emax 2A (%): 97.4%
  EC50: 66.4 nM

## C[C@H](CCC[C@H](O)C(F)(F)F)[C@H]1CC[C@H]2[C@@H]3CC[C@H]4C[C@](O)(C(F)(F)F)CC[C@]4(C)[C@H]3CC[C@]12C [Compound 11934]
[1]
  Avg Emax 2B (%): 70.0%
  EC50: 470 nM
[2]
  Avg Emax 2A (%): 113.4%
  EC50: 729 nM

## C[C@H](CCC[C@@H](O)C(C)(C)C)[C@H]1CC[C@H]2[C@@H]3CC[C@H]4C[C@](O)(C(F)(F)F)CC[C@]4(C)[C@H]3CC[C@]12C [Compound 12055]
[1]
  Avg Emax 2B (%): 184.7%
  EC50: 1130 nM
[2]
  Avg Emax 2A (%): 113.8%
  EC50: 506 nM

## C[C@H](CCC[C@H](O)C(C)(C)C)[C@H]1CC[C@H]2[C@@H]3CC[C@H]4C[C@](O)(C(F)(F)F)CC[C@]4(C)[C@H]3CC[C@]12C [Compound 12156]
[1]
  Avg Emax 2B (%): 111.2%
  EC50: 2460 nM
[2]
  Avg Emax 2A (%): 43.2%
  EC50: 154 nM
